The values that follow come from patent US10035800B2 (AbbVie Inc., priority 2013, dated 2018).

Test [1] concerns breast cancer cell line MX-1. Nature of the test: MX-1 cell line proliferation assay. Type of test: cell-based. Conditions: MX-1 cells, 3-day proliferation assay, Cell Titer Glo; read-out: Cellular proliferation: EC50. An outline of the steps:
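MX-1 cells at 5000/well, in RPMI 1640 with 10% FBS, were exposed to compounds for 3 days. Final concentrations ranged 3 μM–0.1 nM or 1 μM–0.03 nM, in 3-fold steps. Cell Titer Glo luminescence was normalized to DMSO and fitted sigmoidally for EC50; overall MSR 2.1.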

The next test addresses T1, BRD4 (BDII_E352-M457) (Homo sapiens, UniProt O60885).
T1 construct: protocol; made in house
The experiment in a line: TR-FRET bromodomain binding assay, second bromodomain of BRD4. Particulars: TR-FRET assay protocol G (compound 0.92 μM-15 pM); 30 nM probe. In outline:
(§1)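 Compound dilutions are mixed with His-tagged BRD4 bromodomain (8 nM), europium anti-His antibody (1 nM) and Alexa647 probe (BDI 100 nM; BDII 30 nM) in pH 6.0 buffer containing 2% DMSO. After equilibrating one hour at room temperature, TR-FRET is measured; percent inhibition is fitted to obtain IC50, from which Ki is calculated.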

In another test the test system is OPM-2 xenograft tumors. Conditions: SCID-beige mice.
For another test, the target named is T2, BRD4 (BDI_K57-E168) (Homo sapiens, UniProt O60885).
T2 construct: BD1: amino acids K57-E168; made in house
Nature of the test: TR-FRET bromodomain binding assay, first bromodomain of BRD4. Particulars: TR-FRET assay protocol G (compound 0.92 μM-15 pM); 100 nM probe. In outline:
as §1
(Time-resolved FRET reads energy transfer from a long-lived donor to a nearby acceptor.)

The test system of test [2] is IL-6 (Interleukin-6) production. The experiment in a line: LPS (lipopolysaccharide) induced IL-6 production mouse assay. It is filed as in vivo, mice. Particulars: oral administration 1 h before LPS 2.5 mg/kg ip, serum 2 h after LPS, p < 0.05 vs vehicle. The procedure: LPS (Lipopolysaccharide) Induced IL-6 Production Mouse Assay
Compounds of the Examples listed in Table 2 were assayed for their ability to inhibit LPS (lipopolysaccharide) induced IL-6 (Interleukin-6) production in mice. Fox Chase SCID® female mice (Charles Rivers Labs, 5 per group) or CD1 female mice (5 per group) received an intraperitoneal challenge of lipopolysaccharide (2.5 mg/kg, L2630 E. coli 0111:B4) one hour after oral administration of compounds. Mice were euthanized 2 hours after lipopolysaccharide injection, blood was removed by cardiac puncture, and then the serum harvested from the blood samples was frozen at −80° C. On the day of the assay the serum samples were brought to room temperature and then diluted 1:20 in phosphate-buffered saline containing 2% bovine serum albumin. Interleukin-6 measurements were performed using a cytokine assay from Meso Scale Discovery (Gaithersburg, Md.) for mouse serum analysis according to the manufacturer's protocol and read on a SECTOR Imager 6000 (Meso Scale Discovery, Gaithersburg, Md.) instrument. Statistical analysis was performed using Prism software (version 5.0) incorporating Dunnett's one way ANOVA. The IL-6 mean and standard deviation of the group of vehicle treated animals were compared with the IL-6 mean and standard deviation of the group treated with drug. A p value <0.05 means that there is less than a 5% probability that the mean values in the two groups are equal.

Values joined by “and” are separate entries in the source; they are usually repeats but may differ in a detail not shown here. Equal values may be shown once. Read-outs that look alike come from different tables or passages of the source. Marks after values point to notes of the source that are not given here.

Protocol for OPM-2 xenograft tumors: Xenograft Tumor Growth Inhibition Assay
A suspension of cancer cells (5×10^6 per 0.1 mL) prepared in RPMI culture medium (Invitrogen, Carlsbad, Calif.) was diluted 1:1 with a solution of Matrigel™ (BD Biosciences, Franklin Lakes, N.J.) and inoculated subcutaneously into the right hind flank of female SCID-beige (Charles River Labs) mice. Randomization into treatment and vehicle control groups (8-10/group) occurred when the mean tumor volume reached approximately 250 mm^3. Compounds were formulated in 2.5% DMSO, 10% ethanol, 27.5% PEG 400, 60% Phosol 53 MCT. Administration of compound or vehicle was initiated on the day following randomization and continued for 21 days. Tumors were measured twice a week throughout the treatment period using a pair of calipers and tumor volumes were calculated according to the formula V=L×W^2/2 (V: volume, mm^3; L: length, mm. W: width, mm).

For the molecule `Cn1cc2c3c(c[nH]c3c1=O)CN(C1CCC(NC(=O)OC(C)(C)C)CC1)c1ccc(CS(C)(=O)=O)cc1-2` (mixture of isomers) [Example 196], in test [1], the EC50 was 3.82 nM. In addition, the inhibition constant Ki stood at 1.72 nM on BRD4 (BDII_E352-M457) and 1.14 nM at BRD4 (BDI_K57-E168). The “% TGI” value in the test with OPM-2 xenograft tumors (2.5 mg/kg PO, QD x21) is listed as 84*** %; with OPM-2 xenograft tumors (5 mg/kg PO, QD x21), 92*** %. Besides, in test [2] (mouse strain CD1), the “% inhibition of LPS induced IL-6 production” value (from here on “% inhibition”) worked out at 79%.
As to `Cn1cc2c3c(c[nH]c3c1=O)CN(c1ccc(F)cc1)c1ccc(CS(C)(=O)=O)cc1-2` [Example 9, 4-(4-fluorophenyl)-10-methyl-7-((methylsulfonyl)methyl)-3,4-dihydro-1H-1,4,10-triazadibenzo[cd,f]azulen-11(10H)-one], in test [1], the EC50 stood at 0.721 nM. Further, the results for the Ki on BRD4 (BDII_E352-M457) and on BRD4 (BDI_K57-E168) were 1.11 nM and 0.453 nM, respectively. Also, in the test on OPM-2 xenograft tumors (1.85 mg/kg PO, QD x21), the “% TGI” value is on record as 87*** %. For the same molecule, in test [2] (mouse strain SCID), the “% inhibition” value was found to be 79%.
With `Cn1cc2c3c(c[nH]c3c1=O)CN(c1ccc(F)cc1F)c1ccc(CS(C)(=O)=O)cc1-2` [Example 12, 4-(2,4-difluorophenyl)-10-methyl-7-((methylsulfonyl)methyl)-3,4-dihydro-1H-1,4,10-triazadibenzo[cd,f]azulen-11(10H)-one], the EC50 in test [1] was 4 nM. Further, the Ki was determined as 0.472 nM on BRD4 (BDII_E352-M457) and 1.34 nM at BRD4 (BDI_K57-E168). Besides, the “% TGI” value in the test on OPM-2 xenograft tumors (1.5 mg/kg IP, QD x21) was 82** % and 91*** %; with OPM-2 xenograft tumors (1.5 mg/kg PO, QD x21) it was 87*** %; in the test on OPM-2 xenograft tumors (3 mg/kg IP, QD x21), 89** %; with OPM-2 xenograft tumors (3 mg/kg PO, 3 on 4 off x3 weeks), 81*** %; in the test with OPM-2 xenograft tumors (3 mg/kg PO, QD x11), 72*** %; in the test on OPM-2 xenograft tumors (3 mg/kg PO, QD x21), 94*** %. In addition, the “% inhibition” value in test [2] (mouse strain SCID) is recorded as 90%.
`Cn1cc2c3c(c[nH]c3c1=O)CN(C1CCOCC1)c1ccc(CS(C)(=O)=O)cc1-2` [Example 151, 10-methyl-7-((methylsulfonyl)methyl)-4-(tetrahydro-2H-pyran-4-yl)-3,4-dihydro-1H-1,4,10-triazadibenzo[cd,f]azulen-11(10H)-one]: in test [1], the EC50 is 4.26 nM. Also, the inhibition constant (Ki) came to 2.3 nM on BRD4 (BDII_E352-M457) and 1.14 nM on BRD4 (BDI_K57-E168). Further, the “% inhibition” value in test [2] (mouse strain CD1) was determined as 57%.
Turning to `CCOC(=O)N1Cc2c[nH]c3c(=O)n(C)cc(c23)-c2cc(F)cc(F)c21` [Example 173, ethyl 5,7-difluoro-10-methyl-11-oxo-10,11-dihydro-1H-1,4,10-triazadibenzo[cd,f]azulene-4(3H)-carboxylate], the EC50 in test [1] was 19.9 nM. Besides, the Ki at BRD4 (BDII_E352-M457) was found to be 3.14 nM; on BRD4 (BDI_K57-E168) it was 6.72 nM. Moreover, in the test on OPM-2 xenograft tumors (1.25 mg/kg PO, QD x21), the “% TGI” value is on record as 49** %. Moreover, in test [2] (mouse strain CD1), the “% inhibition” value was determined as 87%.
Turning to `Cn1cc2c3c(c[nH]c3c1=O)CN(CCC1CCOCC1)c1ccc(CS(C)(=O)=O)cc1-2` [Example 191, 10-methyl-7-((methylsulfonyl)methyl)-4-(2-(tetrahydro-2H-pyran-4-yl)ethyl)-3,4-dihydro-1H-1,4,10-triazadibenzo[cd,f]azulen-11(10H)-one], in test [1], the EC50 turned out to be 10.7 nM. The Ki on BRD4 (BDII_E352-M457) is 3.38 nM; on BRD4 (BDI_K57-E168), 1 nM. Also, the “% inhibition” value in test [2] (mouse strain CD1) is 60%.
Consider `Cn1cc2c3c(c[nH]c3c1=O)CN(c1ccc(C#N)cc1)c1ccc(CS(C)(=O)=O)cc1-2` [Example 192, 4-(10-methyl-7-((methylsulfonyl)methyl)-11-oxo-10,11-dihydro-1H-1,4,10-triazadibenzo[cd,f]azulen-4(3H)-yl)benzonitrile], for which the EC50 in test [1] was determined as 1.25 nM. The Ki turned out to be 1.08 nM at BRD4 (BDII_E352-M457) and 1.65 nM at BRD4 (BDI_K57-E168). Moreover, the “% inhibition” value in test [2] (mouse strain CD1) was 73%.
In the case of `Cn1cc2c3c(c[nH]c3c1=O)CN(c1ccc(F)cc1F)c1c-2cc(CS(C)(=O)=O)cc1C1CC1` [Example 195, 5-cyclopropyl-4-(2,4-difluorophenyl)-10-methyl-7-((methylsulfonyl)methyl)-3,4-dihydro-1H-1,4,10-triazadibenzo[cd,f]azulen-11(10H)-one], the EC50 in test [1] came to 3.77 nM. In addition, the values for the Ki on BRD4 (BDII_E352-M457) and at BRD4 (BDI_K57-E168) were 0.62 nM and 2.66 nM, respectively. In addition, the “% inhibition” value in test [2] (mouse strain CD1) is recorded as 85%.
Turning to `Cn1cc2c3c(c[nH]c3c1=O)CN(c1ccc(Cl)cc1)c1ccc(CS(C)(=O)=O)cc1-2` [Example 198, 4-(4-chlorophenyl)-10-methyl-7-((methylsulfonyl)methyl)-3,4-dihydro-1H-1,4,10-triazadibenzo[cd,f]azulen-11(10H)-one], the EC50 in test [1] came to 0.69 nM. In addition, the Ki on BRD4 (BDII_E352-M457) was determined as 0.63 nM; on BRD4 (BDI_K57-E168), 1.59 nM. The “% inhibition” value in test [2] (mouse strain CD1) worked out at 86%.
Take `Cn1cc2c3c(c(C#N)[nH]c3c1=O)CN(c1ccc(Cl)cc1)c1ccc(CS(C)(=O)=O)cc1-2` [Example 199, 4-(4-chlorophenyl)-10-methyl-7-((methylsulfonyl)methyl)-11-oxo-3,4,10,11-tetrahydro-1H-1,4,10-triazadibenzo[cd,f]azulene-2-carbonitrile]: the EC50 in test [1] is 10.8 nM. Moreover, the inhibitory constant (Ki) on BRD4 (BDII_E352-M457) was found to be 1.21 nM; on BRD4 (BDI_K57-E168) it was 0.81 nM. Further, the “% TGI” value in the test on OPM-2 xenograft tumors (1.25 mg/kg PO, QD x21) is reported as 91*** %. Besides, the “% inhibition” value in test [2] (mouse strain CD1) stood at 90%.
Consider `CCNC(=O)c1[nH]c2c(=O)n(C)cc3c2c1CN(c1ccc(F)cc1F)c1ccc(CS(C)(=O)=O)cc1-3` [Example 202, 4-(2,4-difluorophenyl)-N-ethyl-10-methyl-7-((methylsulfonyl)methyl)-11-oxo-3,4,10,11-tetrahydro-1H-1,4,10-triazadibenzo[cd,f]azulene-2-carboxamide], for which the EC50 in test [1] is 4.3 nM. For the same molecule, the inhibitory constant (Ki) worked out at 0.35 nM at BRD4 (BDII_E352-M457) and 0.79 nM on BRD4 (BDI_K57-E168). The “% inhibition” value in test [2] (mouse strain CD1) amounted to 47%.
Take `Cn1cc2c3c(c[nH]c3c1=O)CN(c1ccccn1)c1ccc(CS(C)(=O)=O)cc1-2` [Example 207, 10-methyl-7-((methylsulfonyl)methyl)-4-(pyridin-2-yl)-3,4-dihydro-1H-1,4,10-triazadibenzo[cd,f]azulen-11(10H)-one]: in test [1], the EC50 was determined as 1.33 nM. Besides, the figures for the Ki at BRD4 (BDII_E352-M457) and at BRD4 (BDI_K57-E168) were 2.09 nM and 0.92 nM, respectively. For the same molecule, the “% TGI” value with OPM-2 xenograft tumors (0.25 mg/kg PO, QD x21) was 60*** %; with OPM-2 xenograft tumors (0.5 mg/kg PO, QD x21), 93*** % and 94*** %; with OPM-2 xenograft tumors (1 mg/kg PO, QD x21), 97*** %. In test [2] (mouse strain CD1), the “% inhibition” value is given as 65%.
Regarding `Cn1cc2c3c(c[nH]c3c1=O)CN(c1ncc(F)cc1F)c1ccc(CS(C)(=O)=O)cc1-2` [Example 213, 4-(3,5-difluoropyridin-2-yl)-10-methyl-7-((methylsulfonyl)methyl)-3,4-dihydro-1H-1,4,10-triazadibenzo[cd,f]azulen-11(10H)-one], the EC50 in test [1] is 1.4 nM. Besides, the Ki amounted to 0.42 nM on BRD4 (BDII_E352-M457) and 0.65 nM at BRD4 (BDI_K57-E168). For the same molecule, the “% TGI” value in the test with OPM-2 xenograft tumors (0.5 mg/kg PO, QD x21) is 82*** %; with OPM-2 xenograft tumors (1 mg/kg PO, QD x21), 96*** % and 95*** %.
“N-ethyl-4-(4-fluorophenyl)-10-methyl-7-((methylsulfonyl)methyl)-11-oxo-3,4,10,11-tetrahydro-1H-1,4,10-triazadibenzo[cd,f]azulene-2-carboxamide [Example 194]”: in test [1], the EC50 amounted to 1.47 nM. In addition, the values for the Ki on BRD4 (BDII_E352-M457) and on BRD4 (BDI_K57-E168) were 0.38 nM and 1.33 nM, respectively. Moreover, the “% inhibition” value in test [2] (mouse strain CD1) amounted to 53%.

As a reminder, the Ki is a dissociation constant, usually derived from enzyme kinetics or from competition with a known ligand.
